Laboratory results as given in ChEMBL document CHEMBL1147010, “Aziridine-2,3-dicarboxylate inhibitors targeting the major cysteine protease of Trypanosoma brucei as lead trypanocidal agents” (Bioorg Med Chem Lett, 2006).
Activity calls are given as the source filed them. No cut-off for these calls is given here.

How the values were obtained:
J774 [1] = test: Cytotoxicity against J774.1 cell line after 72 hrs; assay type: functional, cell-based; conditions: Mus musculus, J774, 72 h
[2] = tested on: Trypanosoma brucei brucei; test: Trypanocidal activity against Trypanosoma brucei brucei after 48 hrs; assay type: functional, organism-based
J774 [3] = test: Selectivity index, IC50 for J774.1/IC50 for Trypanosoma brucei brucei; assay type: functional
[4] = biological target: Rhodesain (Trypanosoma brucei rhodesiense) (UniProt Q95PM0); test: Inhibition of Trypanosoma brucei rhodesiense rhodesain at 140 uM
Rhodesain [5] = biological target: T1, Rhodesain (Trypanosoma brucei rhodesiense, UniProt Q95PM0); test: Inhibition of Trypanosoma brucei rhodesiense rhodesain in presence of 31.6 uM substrate Cbz-Phe-Arg-AMC
J774 [6] = test: Cytotoxicity against J774.1 cell line after 48 hrs; assay type: functional, cell-based; conditions: Mus musculus, J774, 48 h
Rhodesain [7] = biological target: T1, Rhodesain; test: Inhibition of Trypanosoma brucei rhodesiense rhodesain
[8] = biological target: Rhodesain (Trypanosoma brucei rhodesiense) (UniProt Q95PM0); test: Inhibition of Trypanosoma brucei rhodesiense rhodesain at 200 uM

T1 sequence (Q95PM0 whole entry): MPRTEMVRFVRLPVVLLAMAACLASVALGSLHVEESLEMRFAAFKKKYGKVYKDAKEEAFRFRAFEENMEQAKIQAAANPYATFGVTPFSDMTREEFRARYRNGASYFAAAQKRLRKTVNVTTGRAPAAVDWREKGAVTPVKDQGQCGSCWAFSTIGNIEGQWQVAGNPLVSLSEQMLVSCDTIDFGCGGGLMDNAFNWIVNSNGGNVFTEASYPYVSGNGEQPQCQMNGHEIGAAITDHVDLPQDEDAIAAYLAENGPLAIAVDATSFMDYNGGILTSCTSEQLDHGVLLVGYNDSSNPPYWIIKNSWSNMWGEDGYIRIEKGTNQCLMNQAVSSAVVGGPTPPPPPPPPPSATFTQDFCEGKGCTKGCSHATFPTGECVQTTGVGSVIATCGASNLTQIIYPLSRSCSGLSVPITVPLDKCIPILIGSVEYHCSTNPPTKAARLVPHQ
Rhodesain (Trypanosoma brucei rhodesiense), sequence (Q95PM0 1-450): as the sequence (Q95PM0 whole entry) above

C[C@H](NC(=O)[C@@H](Cc1ccccc1)NC(=O)OC(C)(C)C)C(=O)N1[C@H](C(=O)OCc2ccccc2)[C@H]1C(=O)OCc1ccccc1
IC50 (J774 [1]): 43.7 µM
IC50 [2]: 34.3 µM
Ratio IC50 (J774 [3]): 1.3
inhibition [4]: inactive

CCOC(=O)[C@@H]1[C@@H](C(=O)OCC)N1C(=O)[C@@H]1CN1C(=O)[C@H](CC(C)C)NC(=O)OC(C)(C)C
IC50 [2]: 25.7 µM
Ratio IC50 (J774 [3]): 1.9
Ki (Rhodesain [5]): 0.36 µM
IC50 (J774 [6]): 50 µM
Ki (Rhodesain [7]): 0.3 µM

Cl.NCCCC(N)(C(=O)O)C(F)F.O (stereo not drawn) [EFLORNITHINE HYDROCHLORIDE]
inhibition [8]: 30.7%
MIC [2]: > 1000 µM
Ratio IC50 (J774 [3]): >44
IC50 (J774 [6]): > 1000 µM
